Experimental data reported in article PMC9889419 (Pharmacological Reports, 2022).
Counter-ions that a name gives are not always drawn. Marks after values point to notes of the source that are not given here.

Legend:
5-HT1B = target: T1, 5-HT1B (Rattus norvegicus, UniProt P28564); experiment: Radioligand binding; conditions: 100 μM
T1 construct: purchased Eurofins CEREP

5-HT3 = target: T2, 5-HT3 (Homo sapiens, UniProt P46098); experiment: Radioligand binding; conditions: 100 μM
T2 construct: purchased Eurofins CEREP

5-HT6 = target: T3, 5-HT6 (Homo sapiens, UniProt P50406); experiment: Radioligand binding; conditions: 100 μM
T3 construct: purchased Eurofins CEREP

A1 = target: T4, A1 (Homo sapiens, UniProt P30542); experiment: Radioligand binding; conditions: 100 μM
T4 construct: purchased Eurofins CEREP

A2A = target: T5, A2A (Homo sapiens, UniProt P29274); experiment: Radioligand binding; conditions: 100 μM
T5 construct: purchased Eurofins CEREP

A3 = target: T6, A3 (Homo sapiens, UniProt P0DMS8); experiment: Radioligand binding; conditions: 100 μM
T6 construct: purchased Eurofins CEREP

AT1 = target: T7, AT1 (Homo sapiens, UniProt P30556); experiment: Radioligand binding; conditions: 100 μM
T7 construct: purchased Eurofins CEREP

BZD (peripheral) = target: T8, BZD (peripheral) (Rattus norvegicus, UniProt P16257); experiment: Radioligand binding; conditions: 100 μM
T8 construct: purchased Eurofins CEREP

CCK1 (CCKA) = target: T9, CCK1 (CCKA) (Homo sapiens, UniProt P32238); experiment: Radioligand binding; conditions: 100 μM
T9 construct: purchased Eurofins CEREP

CGRP = target: T10, CGRP (Homo sapiens, UniProt O60894+Q16602); experiment: Radioligand binding; conditions: 100 μM
T10 construct: purchased Eurofins CEREP

D1 = target: T11, D1 (Homo sapiens, UniProt P21728); experiment: Radioligand binding; conditions: 100 μM
T11 construct: purchased Eurofins CEREP

D5 = target: T12, D5 (Homo sapiens, UniProt P21918); experiment: Radioligand binding; conditions: 100 μM
T12 construct: purchased Eurofins CEREP

EP2 = target: T13, EP2 (Homo sapiens, UniProt P43116); experiment: Radioligand binding; conditions: 100 μM
T13 construct: purchased Eurofins CEREP

ETA = target: T14, ETA (Homo sapiens, UniProt P25101); experiment: Radioligand binding; conditions: 100 μM
T14 construct: purchased Eurofins CEREP

GAL2 = target: T15, GAL2 (Homo sapiens, UniProt O43603); experiment: Radioligand binding; conditions: 100 μM
T15 construct: purchased Eurofins CEREP

IP (PGI2) = target: T16, IP (PGI2) (Homo sapiens, UniProt P43119); experiment: Radioligand binding; conditions: 100 μM
T16 construct: purchased Eurofins CEREP

M2 = target: T17, M2 (Homo sapiens, UniProt P08172); experiment: Radioligand binding; conditions: 100 μM
T17 construct: purchased Eurofins CEREP

MT1 (ML1A) = target: T18, MT1 (ML1A) (Homo sapiens, UniProt P48039); experiment: Radioligand binding; conditions: 100 μM
T18 construct: purchased Eurofins CEREP

NK1 = target: T19, NK1 (Homo sapiens, UniProt P25103); experiment: Radioligand binding; conditions: 100 μM
T19 construct: purchased Eurofins CEREP

NK3 = target: T20, NK3 (Homo sapiens, UniProt P29371); experiment: Radioligand binding; conditions: 100 μM
T20 construct: purchased Eurofins CEREP

NOP (ORL1) = target: T21, NOP (ORL1) (Homo sapiens, UniProt P41146); experiment: Radioligand binding; conditions: 100 μM
T21 construct: purchased Eurofins CEREP

NTS1 (NT1) = target: T22, NTS1 (NT1) (Homo sapiens, UniProt P30989); experiment: Radioligand binding; conditions: 100 μM
T22 construct: purchased Eurofins CEREP

PAC1 (PACAP) = target: T23, PAC1 (PACAP) (Homo sapiens, UniProt P41586); experiment: Radioligand binding; conditions: 100 μM
T23 construct: purchased Eurofins CEREP

PDGF = experiment: Radioligand binding; conditions: 100 μM
PPARγ = target: T24, PPARγ (Homo sapiens, UniProt P37231); experiment: Radioligand binding; conditions: 100 μM
T24 construct: purchased Eurofins CEREP

TNF-α = experiment: Radioligand binding; conditions: 100 μM
V1a = target: T25, V1a (Homo sapiens, UniProt P37288); experiment: Radioligand binding; conditions: 100 μM
T25 construct: purchased Eurofins CEREP

VPAC1 (VIP1) = target: T26, VPAC1 (VIP1) (Homo sapiens, UniProt P32241); experiment: Radioligand binding; conditions: 100 μM
T26 construct: purchased Eurofins CEREP

Y1 = target: T27, Y1 (Homo sapiens, UniProt P25929); experiment: Radioligand binding; conditions: 100 μM
T27 construct: purchased Eurofins CEREP

Y2 = target: T28, Y2 (Homo sapiens, UniProt P49146); experiment: Radioligand binding; conditions: 100 μM
T28 construct: purchased Eurofins CEREP

[1] = target: T29, norepinephrine transporter (Homo sapiens, UniProt P23975); experiment: Radioligand binding; conditions: 100 μM
T29 construct: purchased Eurofins CEREP

sst (non-selective) = experiment: Radioligand binding; conditions: 100 μM
β1 = target: T30, β1 (Homo sapiens, UniProt P08588); experiment: Radioligand binding; conditions: 100 μM
T30 construct: purchased Eurofins CEREP

β2 = target: T31, β2 (Homo sapiens, UniProt P07550); experiment: Radioligand binding; conditions: 100 μM
T31 construct: purchased Eurofins CEREP

[2] = tested on: CYP3A4 (pregnane X receptor); experiment: In vitro metabolic gene induction studies; assay type: cell-based, human
Description: Solvent Code: DMSO solvent Prep: Unit: uM
Cell line source: Puracyp Molecular 257.7590
lsofoIm Coder CYP3A4 Cell line: DP)e
Induction mechanism: pregnane X receptor
Concentration lnduction Cell
Fold +/- S.D Viability +/- S.D

Sigma 2 = target: T32, Sigma 2 (Homo sapiens, UniProt Q5BJF2); experiment: Radioligand binding
T32 construct: purchased Eurofins CEREP

guinea pigs = experiment: Corneal anesthesia; assay type: in vivo
Protocol: A. Corneal anesthesia. […] The corneal reflex was examined by irritation of right eye conjunctiva (studied eye) and a left eye conjunctiva (control eye) by horsehair. The strength of local anesthetic activity was determined from the moment of solution instillation to the moment of reflex return. The presence or lack of corneal reflex were assessed. The eye conjunctiva irritation was done 6 times (every 5 s) with the interval of 5 min during the first 30 min [31].

T32 sequence (Q5BJF2 whole entry): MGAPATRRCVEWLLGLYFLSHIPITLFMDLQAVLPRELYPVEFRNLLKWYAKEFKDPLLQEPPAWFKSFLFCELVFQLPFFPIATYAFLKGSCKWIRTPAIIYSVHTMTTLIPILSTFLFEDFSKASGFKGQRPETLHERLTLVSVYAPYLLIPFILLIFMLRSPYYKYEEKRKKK
T31 sequence (P07550 whole entry): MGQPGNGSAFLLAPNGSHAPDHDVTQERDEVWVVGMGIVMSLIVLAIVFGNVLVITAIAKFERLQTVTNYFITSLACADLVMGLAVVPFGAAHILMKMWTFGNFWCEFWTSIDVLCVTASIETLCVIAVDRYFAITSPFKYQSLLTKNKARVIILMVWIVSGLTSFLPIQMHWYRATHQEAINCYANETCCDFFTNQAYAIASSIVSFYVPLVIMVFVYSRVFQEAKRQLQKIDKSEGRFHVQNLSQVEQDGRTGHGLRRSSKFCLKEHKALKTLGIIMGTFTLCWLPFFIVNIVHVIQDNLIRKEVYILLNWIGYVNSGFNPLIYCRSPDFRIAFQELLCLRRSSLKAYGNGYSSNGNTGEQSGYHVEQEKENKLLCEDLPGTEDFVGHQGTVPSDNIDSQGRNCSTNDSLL
T23 sequence (P41586 21-468): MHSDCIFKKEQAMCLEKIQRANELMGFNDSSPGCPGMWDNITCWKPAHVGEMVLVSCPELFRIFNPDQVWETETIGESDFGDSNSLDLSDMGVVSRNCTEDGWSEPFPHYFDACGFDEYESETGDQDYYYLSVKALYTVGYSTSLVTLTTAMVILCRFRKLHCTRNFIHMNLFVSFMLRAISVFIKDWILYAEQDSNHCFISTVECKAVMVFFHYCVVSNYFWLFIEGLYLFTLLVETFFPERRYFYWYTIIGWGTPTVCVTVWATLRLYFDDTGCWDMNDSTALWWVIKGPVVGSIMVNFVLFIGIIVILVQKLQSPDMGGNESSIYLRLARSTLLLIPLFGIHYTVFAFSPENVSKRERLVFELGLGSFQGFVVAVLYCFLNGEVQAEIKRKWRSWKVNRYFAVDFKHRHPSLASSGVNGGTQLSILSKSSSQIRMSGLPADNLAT
T2 sequence (P46098 24-478): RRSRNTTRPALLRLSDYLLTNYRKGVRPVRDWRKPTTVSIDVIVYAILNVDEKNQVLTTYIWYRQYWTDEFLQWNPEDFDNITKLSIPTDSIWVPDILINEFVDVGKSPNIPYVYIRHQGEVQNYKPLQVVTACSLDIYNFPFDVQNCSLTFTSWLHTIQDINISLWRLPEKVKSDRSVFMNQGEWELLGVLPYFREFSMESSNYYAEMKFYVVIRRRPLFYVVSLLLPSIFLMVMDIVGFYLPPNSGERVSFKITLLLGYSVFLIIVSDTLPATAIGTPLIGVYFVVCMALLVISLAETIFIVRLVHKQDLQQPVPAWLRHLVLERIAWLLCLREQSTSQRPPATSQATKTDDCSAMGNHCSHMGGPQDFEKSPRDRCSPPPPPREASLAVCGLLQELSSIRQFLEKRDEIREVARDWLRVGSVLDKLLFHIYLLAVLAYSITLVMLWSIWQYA
T30 sequence (P08588 whole entry): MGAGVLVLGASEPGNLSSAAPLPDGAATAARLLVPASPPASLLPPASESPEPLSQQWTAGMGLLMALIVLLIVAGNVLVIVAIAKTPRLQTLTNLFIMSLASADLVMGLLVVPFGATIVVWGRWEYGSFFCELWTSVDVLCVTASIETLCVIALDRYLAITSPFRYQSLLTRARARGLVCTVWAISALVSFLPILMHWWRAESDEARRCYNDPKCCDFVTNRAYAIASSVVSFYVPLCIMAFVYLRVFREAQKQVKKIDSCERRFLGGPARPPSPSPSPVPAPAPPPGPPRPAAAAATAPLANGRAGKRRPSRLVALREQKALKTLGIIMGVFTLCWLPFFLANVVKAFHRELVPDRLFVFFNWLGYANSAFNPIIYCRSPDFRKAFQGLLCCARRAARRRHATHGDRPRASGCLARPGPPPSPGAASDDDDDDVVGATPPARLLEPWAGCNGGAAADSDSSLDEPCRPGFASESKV
T16 sequence (P43119 whole entry): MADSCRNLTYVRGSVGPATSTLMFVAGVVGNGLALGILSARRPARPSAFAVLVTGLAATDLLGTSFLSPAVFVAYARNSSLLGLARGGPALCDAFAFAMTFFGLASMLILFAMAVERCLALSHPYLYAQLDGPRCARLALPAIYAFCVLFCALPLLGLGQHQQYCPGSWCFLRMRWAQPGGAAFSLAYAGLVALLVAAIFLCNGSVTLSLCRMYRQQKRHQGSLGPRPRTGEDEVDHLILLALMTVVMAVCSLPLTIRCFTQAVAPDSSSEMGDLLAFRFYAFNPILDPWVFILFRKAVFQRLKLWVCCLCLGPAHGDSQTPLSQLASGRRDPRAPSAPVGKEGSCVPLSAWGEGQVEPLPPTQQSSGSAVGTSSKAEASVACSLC
T28 sequence (P49146 whole entry): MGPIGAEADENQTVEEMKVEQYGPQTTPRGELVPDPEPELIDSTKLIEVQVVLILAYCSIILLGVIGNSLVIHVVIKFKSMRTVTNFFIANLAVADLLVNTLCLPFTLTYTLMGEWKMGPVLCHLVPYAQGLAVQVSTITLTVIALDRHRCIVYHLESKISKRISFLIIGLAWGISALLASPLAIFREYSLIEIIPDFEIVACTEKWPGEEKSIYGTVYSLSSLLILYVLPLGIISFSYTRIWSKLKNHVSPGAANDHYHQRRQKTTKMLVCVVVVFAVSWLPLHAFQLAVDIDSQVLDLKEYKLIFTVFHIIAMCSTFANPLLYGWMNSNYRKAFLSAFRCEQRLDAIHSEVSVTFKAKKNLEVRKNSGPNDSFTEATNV
T10 sequence (Q16602 23-461): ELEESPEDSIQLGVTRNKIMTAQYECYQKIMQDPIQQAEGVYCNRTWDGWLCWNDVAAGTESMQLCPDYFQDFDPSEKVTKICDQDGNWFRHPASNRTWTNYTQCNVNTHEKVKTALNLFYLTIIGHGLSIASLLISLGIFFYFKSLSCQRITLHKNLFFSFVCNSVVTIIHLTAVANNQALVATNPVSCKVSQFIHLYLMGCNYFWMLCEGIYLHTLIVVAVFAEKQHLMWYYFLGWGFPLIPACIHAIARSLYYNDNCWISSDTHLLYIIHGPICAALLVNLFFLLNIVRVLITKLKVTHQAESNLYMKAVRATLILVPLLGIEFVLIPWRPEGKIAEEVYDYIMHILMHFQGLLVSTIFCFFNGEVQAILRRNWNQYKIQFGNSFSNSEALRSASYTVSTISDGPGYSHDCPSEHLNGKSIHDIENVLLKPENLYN
T10 sequence (O60894 27-148): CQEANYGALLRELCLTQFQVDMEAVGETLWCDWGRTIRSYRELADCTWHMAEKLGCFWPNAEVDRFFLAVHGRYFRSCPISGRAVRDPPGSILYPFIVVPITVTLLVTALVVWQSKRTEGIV
T18 sequence (P48039 whole entry): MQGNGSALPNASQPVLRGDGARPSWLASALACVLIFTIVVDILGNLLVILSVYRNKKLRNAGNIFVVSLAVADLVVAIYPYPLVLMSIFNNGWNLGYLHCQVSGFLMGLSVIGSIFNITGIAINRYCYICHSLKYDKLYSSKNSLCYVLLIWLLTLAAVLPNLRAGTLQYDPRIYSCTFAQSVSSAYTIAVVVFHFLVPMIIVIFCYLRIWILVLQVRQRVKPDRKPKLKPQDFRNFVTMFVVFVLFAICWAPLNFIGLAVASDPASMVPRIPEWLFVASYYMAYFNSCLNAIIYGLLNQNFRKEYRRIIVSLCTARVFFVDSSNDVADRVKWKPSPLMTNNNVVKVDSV
T21 sequence (P41146 whole entry): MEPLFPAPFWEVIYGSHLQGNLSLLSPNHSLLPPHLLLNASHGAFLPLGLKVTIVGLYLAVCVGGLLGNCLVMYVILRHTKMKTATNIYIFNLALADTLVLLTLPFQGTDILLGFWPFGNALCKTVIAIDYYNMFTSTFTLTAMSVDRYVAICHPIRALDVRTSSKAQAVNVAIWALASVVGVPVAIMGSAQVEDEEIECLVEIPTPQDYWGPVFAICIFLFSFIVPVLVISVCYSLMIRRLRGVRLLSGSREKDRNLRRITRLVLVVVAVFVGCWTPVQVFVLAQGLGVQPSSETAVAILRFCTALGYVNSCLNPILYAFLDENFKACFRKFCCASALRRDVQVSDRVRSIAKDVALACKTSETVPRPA
T25 sequence (P37288 whole entry): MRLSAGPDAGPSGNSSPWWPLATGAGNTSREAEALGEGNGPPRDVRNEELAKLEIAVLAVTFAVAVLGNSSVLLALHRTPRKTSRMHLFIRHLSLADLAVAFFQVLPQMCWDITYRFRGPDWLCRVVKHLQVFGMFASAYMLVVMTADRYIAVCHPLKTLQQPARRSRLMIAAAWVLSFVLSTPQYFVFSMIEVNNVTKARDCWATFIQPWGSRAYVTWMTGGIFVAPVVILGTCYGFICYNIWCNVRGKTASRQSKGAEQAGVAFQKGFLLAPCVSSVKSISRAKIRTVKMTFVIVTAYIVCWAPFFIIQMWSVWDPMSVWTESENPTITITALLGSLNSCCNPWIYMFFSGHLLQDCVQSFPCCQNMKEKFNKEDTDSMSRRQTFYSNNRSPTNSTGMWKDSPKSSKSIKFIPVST
T3 sequence (P50406 whole entry): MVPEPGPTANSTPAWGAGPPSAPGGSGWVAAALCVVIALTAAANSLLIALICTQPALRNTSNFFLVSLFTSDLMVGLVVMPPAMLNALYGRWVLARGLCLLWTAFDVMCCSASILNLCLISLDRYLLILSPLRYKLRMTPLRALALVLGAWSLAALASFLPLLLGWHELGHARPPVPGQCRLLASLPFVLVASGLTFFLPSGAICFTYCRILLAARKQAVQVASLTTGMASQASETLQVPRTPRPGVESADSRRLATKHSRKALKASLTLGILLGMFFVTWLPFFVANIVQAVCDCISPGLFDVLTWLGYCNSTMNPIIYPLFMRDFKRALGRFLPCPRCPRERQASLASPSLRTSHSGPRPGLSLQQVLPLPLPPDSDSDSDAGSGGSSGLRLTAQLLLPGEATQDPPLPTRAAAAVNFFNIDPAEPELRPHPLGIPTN

## CCC(CO)NCCOc1c(C)cccc1Cl (stereo not drawn) [Compound 4, R,S-2-((2-(2-chloro-6-methylphenoxy)ethyl)amino)butan-1-ol]
5-HT1B
  % of control specific binding: 79.7%
5-HT3
  % of control specific binding: 76.2%
5-HT6
  % of control specific binding: 101.6%
A1
  % of control specific binding: 124.5%
A2A
  % of control specific binding: 71.7%
A3
  % of control specific binding: 115.1%
AT1
  % of control specific binding: 131.2%
BZD (peripheral)
  % of control specific binding: 75.1%
CCK1 (CCKA)
  % of control specific binding: 99.8%
CGRP
  % of control specific binding: 119.0%
D1
  % of control specific binding: 58.6%
D5
  % of control specific binding: 54.4%
EP2
  % of control specific binding: 75.4%
ETA
  % of control specific binding: 130.9%
GAL2
  % of control specific binding: 111.9%
IP (PGI2)
  % of control specific binding: 97.2%
M2
  % of control specific binding: 58.4%
MT1 (ML1A)
  % of control specific binding: 55.1%
NK1
  % of control specific binding: 82.1%
NK3
  % of control specific binding: 91.8%
NOP (ORL1)
  % of control specific binding: 95.5%
NTS1 (NT1)
  % of control specific binding: 128.1%
PAC1 (PACAP)
  % of control specific binding: 107.7%
PDGF
  % of control specific binding: 127.9%
PPARγ
  % of control specific binding: 92.3%
TNF-α
  % of control specific binding: 96.5%
V1a
  % of control specific binding: 99.8%
VPAC1 (VIP1)
  % of control specific binding: 117.9%
Y1
  % of control specific binding: 122.3%
Y2
  % of control specific binding: 126.5%
[1]
  % of control specific binding: 55.0%
Sst (non-selective)
  % of control specific binding: 75.5%
β1
  % of control specific binding: 64.4%
β2
  % of control specific binding: 85.1%
[2]; @ 200uM
  Max induction (calculated): 12 fold
[2]; read-out: EC50 (calculated)
  EC50: 100 µM

## CCC(CO)NCCOc1c(C)cccc1Cl (stereo not drawn) [KM-408, R,S-2-((2-(2-chloro-6-methylphenoxy)ethyl)amino)butan-1-ol hydrochloride]
Sigma 2; read-out: % inhibition of specific control binding
  inhibition at 10 µM: 94.8%
Sigma 2; read-out: % of control specific binding
  remaining activity at 10 µM: 94.8%
Guinea pigs; 0.5%, 5 min
  Inhibition of pain reaction: 94.4*** %
Guinea pigs; 0.5%, 30 min
  Inhibition of pain reaction: 8.3%
Guinea pigs; […], 5 min
  Inhibition of pain reaction: 80.5*** %
Guinea pigs; guinea pigs
  corneal anesthesia: active at: 0.125%
